Activity calls are given as the source filed them. The calls are words filed in the database; no cut-off is given here.
How the values were obtained:
PC-3 [1] = assay: Growth inhibition of human PC3 cells at 3 uM after 48 hrs by SRB assay; values are per cent of control; conditions: PC-3, 48 h
MDA-MB-231 [2] = assay: Growth inhibition of human MDA-MB-231 cells after 48 hrs by SRB assay; format: functional; conditions: MDA-MB-231, 48 h
NUGC-3 [3] = assay: Growth of human NUGC3 cells at 0.3 uM after 48 hrs by SRB assay; conditions: NUGC-3, 48 h
MDA-MB-231 [4] = assay: Growth of human MDA-MB-231 cells at 10 uM after 48 hrs by SRB assay; conditions: MDA-MB-231, 48 h
NCI-H23 [5] = assay: Growth inhibition of human NCI-H23 cells at 0.1 uM after 48 hrs by SRB assay; values are per cent of control; conditions: NCI-H23, 48 h
PC-3 [6] = assay: Growth inhibition of human PC3 cells at 0.1 uM after 48 hrs by SRB assay; values are per cent of control; conditions: PC-3, 48 h
NUGC-3 [7] = assay: Growth inhibition of human NUGC3 cells after 48 hrs by SRB assay; format: functional; conditions: NUGC-3, 48 h
NCI-H23 [8] = assay: Growth inhibition of human NCI-H23 cells at 3 uM after 48 hrs by SRB assay; values are per cent of control; conditions: NCI-H23, 48 h
HCT-15 [9] = assay: Growth of human HCT15 cells at 3 uM after 48 hrs by SRB assay; conditions: HCT-15, 48 h
PC-3 [10] = assay: Growth inhibition of human PC3 cells at 1 uM after 48 hrs by SRB assay; values are per cent of control; conditions: PC-3, 48 h
HCT-15 [11] = assay: Growth inhibition of human HCT15 cells at 10 uM after 48 hrs by SRB assay; values are per cent of control; conditions: HCT-15, 48 h
MDA-MB-231 [12] = assay: Growth of human MDA-MB-231 cells at 3 uM after 48 hrs by SRB assay; values are per cent of control; conditions: MDA-MB-231, 48 h
HCT-15 [13] = assay: Growth inhibition of human HCT15 cells after 48 hrs by SRB assay; format: functional; conditions: HCT-15, 48 h
PC-3 [14] = assay: Growth inhibition of human PC3 cells after 48 hrs by SRB assay; format: functional; conditions: PC-3, 48 h
MDA-MB-231 [15] = assay: Growth inhibition of human MDA-MB-231 cells at 0.3 uM after 48 hrs by SRB assay; values are per cent of control; conditions: MDA-MB-231, 48 h
NCI-H23 [16] = assay: Growth of human NCI-H23 cells at 0.3 uM after 48 hrs by SRB assay; conditions: NCI-H23, 48 h
NCI-H23 [17] = assay: Growth inhibition of human NCI-H23 cells at 1 uM after 48 hrs by SRB assay; values are per cent of control; conditions: NCI-H23, 48 h
ACHN [18] = assay: Growth of human ACHN cells at 0.1 uM after 48 hrs by SRB assay
NCI-H23 [19] = assay: Growth of human NCI-H23 cells at 10 uM after 48 hrs by SRB assay; conditions: NCI-H23, 48 h
[20] = biological target: Rho-related GTP-binding protein RhoB (Homo sapiens) (UniProt P62745); assay: Transactivation of RhoB (unknown origin) transfected in human HeLa cells at 5 uM measured over 10 secs by dual luciferase reporter gene assay; format: cell-based
NCI-H23 [21] = assay: Growth inhibition of human NCI-H23 cells after 48 hrs by SRB assay; format: functional; conditions: NCI-H23, 48 h
MDA-MB-231 [22] = assay: Growth of human MDA-MB-231 cells at 1 uM after 48 hrs by SRB assay; conditions: MDA-MB-231, 48 h
NUGC-3 [23] = assay: Growth of human NUGC3 cells at 0.1 uM after 48 hrs by SRB assay; conditions: NUGC-3, 48 h
NUGC-3 [24] = assay: Growth of human NUGC3 cells at 1 uM after 48 hrs by SRB assay; conditions: NUGC-3, 48 h
NUGC-3 [25] = assay: Growth inhibition of human NUGC3 cells at 10 uM after 48 hrs by SRB assay; values are per cent of control; conditions: NUGC-3, 48 h
HCT-15 [26] = assay: Growth of human HCT15 cells at 0.3 uM after 48 hrs by SRB assay; conditions: HCT-15, 48 h
ACHN [27] = assay: Growth of human ACHN cells at 0.3 uM after 48 hrs by SRB assay
ACHN [28] = assay: Growth inhibition of human ACHN cells at 3 uM after 48 hrs by SRB assay; values are per cent of control
PC-3 [29] = assay: Growth of human PC3 cells at 10 uM after 48 hrs by SRB assay; conditions: PC-3, 48 h
HCT-15 [30] = assay: Growth inhibition of human HCT15 cells at 1 uM after 48 hrs by SRB assay; values are per cent of control; conditions: HCT-15, 48 h
MDA-MB-231 [31] = assay: Growth of human MDA-MB-231 cells at 0.1 uM after 48 hrs by SRB assay; conditions: MDA-MB-231, 48 h
ACHN [32] = assay: Growth of human ACHN cells at 10 uM after 48 hrs by SRB assay
ACHN [33] = assay: Growth inhibition of human ACHN cells after 48 hrs by SRB assay; format: functional
ACHN [34] = assay: Growth inhibition of human ACHN cells at 1 uM after 48 hrs by SRB assay; values are per cent of control
HCT-15 [35] = assay: Growth inhibition of human HCT15 cells at 0.1 uM after 48 hrs by SRB assay; values are per cent of control; conditions: HCT-15, 48 h
PC-3 [36] = assay: Growth inhibition of human PC3 cells at 0.3 uM after 48 hrs by SRB assay; values are per cent of control; conditions: PC-3, 48 h
NUGC-3 [37] = assay: Growth inhibition of human NUGC3 cells at 3 uM after 48 hrs by SRB assay; values are per cent of control; conditions: NUGC-3, 48 h

Chain of Rho-related GTP-binding protein RhoB (Homo sapiens) (P62745 whole entry): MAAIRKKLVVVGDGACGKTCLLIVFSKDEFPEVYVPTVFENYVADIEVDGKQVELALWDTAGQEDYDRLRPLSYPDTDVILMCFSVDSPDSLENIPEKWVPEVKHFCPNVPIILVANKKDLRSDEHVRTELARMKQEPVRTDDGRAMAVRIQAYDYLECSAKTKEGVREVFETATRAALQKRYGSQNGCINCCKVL

SMILES | growth, % of control at 3 µM (PC-3 [1]) [%] | GI50 (MDA-MB-231 [2]) [nM] | growth, % of control at 0.3 µM (NUGC-3 [3]) [%] | growth, % of control at 10 µM (MDA-MB-231 [4]) [%] | growth, % of control at 0.1 µM (NCI-H23 [5]) [%] | growth, % of control at 0.1 µM (PC-3 [6]) [%] | GI50 (NUGC-3 [7]) [nM] | growth, % of control at 3 µM (NCI-H23 [8]) [%] | growth, % of control at 3 µM (HCT-15 [9]) [%] | growth, % of control at 1 µM (PC-3 [10]) [%] | growth, % of control at 10 µM (HCT-15 [11]) [%] | growth, % of control at 3 µM (MDA-MB-231 [12]) [%] | GI50 (HCT-15 [13]) [nM] | GI50 (PC-3 [14]) [nM] | growth, % of control at 0.3 µM (MDA-MB-231 [15]) [%] | growth, % of control at 0.3 µM (NCI-H23 [16]) [%] | growth, % of control at 1 µM (NCI-H23 [17]) [%] | growth, % of control at 0.1 µM (ACHN [18]) [%] | growth, % of control at 10 µM (NCI-H23 [19]) [%] | Activity [20] | further results
CCCCCCCCCCCCCCCCS(=O)(=O)N(C)CCC[N+](C)(C)CC | -17.9 | 690 | 63.4 | 0 | 70.4 | 91.6 | 200 | 14.8 | 30.5 | 25 | 15.7 | 27.3 | 780 | 360 | 89.2 | 73.1 | 58.8 | 102 | -22.7 | Active | GI50 (NCI-H23 [21]): 430 nM; growth, % of control at 1 µM (MDA-MB-231 [22]): 54.4%; growth, % of control at 0.1 µM (NUGC-3 [23]): 76.9%; growth, % of control at 1 µM (NUGC-3 [24]): 16.9%; growth, % of control at 10 µM (NUGC-3 [25]): -27.9%; growth, % of control at 0.3 µM (HCT-15 [26]): 87.4%; growth, % of control at 0.3 µM (ACHN [27]): 92.1%; growth, % of control at 3 µM (ACHN [28]): 35.6%; growth, % of control at 10 µM (PC-3 [29]): -28.9%; growth, % of control at 1 µM (HCT-15 [30]): 56.5%; growth, % of control at 0.1 µM (MDA-MB-231 [31]): 94.8%; growth, % of control at 10 µM (ACHN [32]): 1.6%; GI50 (ACHN [33]): 950 nM; growth, % of control at 1 µM (ACHN [34]): 64.5%; growth, % of control at 0.1 µM (HCT-15 [35]): 85.4%; growth, % of control at 0.3 µM (PC-3 [36]): 88.2%; growth, % of control at 3 µM (NUGC-3 [37]): -14.1%
CCCCCCCCCCCCCCS(=O)(=O)N(C)CCC[N+](C)(C)C | -0.1 | 1260 | 42.8 | 23.5 | 84.8 | 97.1 | 150 | -19.7 | 29.9 | 18.6 | 24.8 | 42.1 | 680 | 300 | 98.1 | 70.6 | 8 | 85.3 | -50.6 | Active | GI50 (NCI-H23 [21]): 210 nM; growth, % of control at 1 µM (MDA-MB-231 [22]): 66.6%; growth, % of control at 0.1 µM (NUGC-3 [23]): 83.9%; growth, % of control at 1 µM (NUGC-3 [24]): 22.7%; growth, % of control at 10 µM (NUGC-3 [25]): -12.9%; growth, % of control at 0.3 µM (HCT-15 [26]): 87.9%; growth, % of control at 0.3 µM (ACHN [27]): 93.4%; growth, % of control at 3 µM (ACHN [28]): 37.8%; growth, % of control at 10 µM (PC-3 [29]): -17.4%; growth, % of control at 1 µM (HCT-15 [30]): 46.2%; growth, % of control at 0.1 µM (MDA-MB-231 [31]): 102%; growth, % of control at 10 µM (ACHN [32]): 27.1%; GI50 (ACHN [33]): 1010 nM; growth, % of control at 1 µM (ACHN [34]): 57.2%; growth, % of control at 0.1 µM (HCT-15 [35]): 92.4%; growth, % of control at 0.3 µM (PC-3 [36]): 86.4%; growth, % of control at 3 µM (NUGC-3 [37]): 8.5%
C=CC[N+](CC)(CC)CCN(C)S(=O)(=O)CCCCCCCCCCCCCCCC | 10 | 1340 | 86.6 | 9.2 | 77.9 | 88.2 | 390 | 16.9 | 66.6 | 73.3 | -7 | 42.9 | 1810 | 760 | 97 | 78.4 | 51.3 | 85.9 | -7.6 | Active | GI50 (NCI-H23 [21]): 450 nM; growth, % of control at 1 µM (MDA-MB-231 [22]): 80.6%; growth, % of control at 0.1 µM (NUGC-3 [23]): 89.1%; growth, % of control at 1 µM (NUGC-3 [24]): 34.9%; growth, % of control at 10 µM (NUGC-3 [25]): -20.2%; growth, % of control at 0.3 µM (HCT-15 [26]): 90.7%; growth, % of control at 0.3 µM (ACHN [27]): 88.2%; growth, % of control at 3 µM (ACHN [28]): 50.4%; growth, % of control at 10 µM (PC-3 [29]): -13.2%; growth, % of control at 1 µM (HCT-15 [30]): 84%; growth, % of control at 0.1 µM (MDA-MB-231 [31]): 94.8%; growth, % of control at 10 µM (ACHN [32]): -11.8%; GI50 (ACHN [33]): 1450 nM; growth, % of control at 1 µM (ACHN [34]): 82.2%; growth, % of control at 0.1 µM (HCT-15 [35]): 87.9%; growth, % of control at 0.3 µM (PC-3 [36]): 91%; growth, % of control at 3 µM (NUGC-3 [37]): 4.9%
